Measurements: patent US11998549B2, “Methods of treating a vascular leakage-associated disease or disorder” (UNITY HEALTH TORONTO, priority 2019, dated 2024)

Assays:
Type in all cases: in vivo
[1] = test system: LPS induced zebrafish sepsis model; assay: Survival in LPS induced zebrafish sepsis model; conditions: comparison of UNC0642 and A366, zebrafish larvae, 27 μg/ml LPS, 24 h
Method: (§1) An LPS induced zebrafish sepsis model which mimics the hallmarks of human sepsis was developed (Philip et al., 2017). Zebrafish show varied susceptibility and responsiveness to LPS from different bacterial strains. Exposure of zebrafish larvae at 3 days post-fertilization (dpf) to two types of LPS (LPS from Escherichia coli 0111:B4 (Sigma) at 100 μg/ml for 5-6 hrs; or LPS from Salmonella at 27 μg/ml for 24 hrs) were both effective in inducing tail fin swelling, increased ROS production, increased vascular leakage and increased mortality.
Survival analyses for zebrafish (wildtype) exposed to various concentrations of LPS (Escherichia coli 0111:B4; Sigma) was performed. 3 dpf larvae were exposed to LPS by immersion technique. Larvae were treated with 10, 25, 50, 125, 250, 500, 1000, 2500, 5000 or 10000 nM UNC0642 along with 100 μg/ml LPS (LPS was dissolved in eggwater), by static immersion at 28.5° C. for 24 h in a total volume of 2 mL per treatment. Control larvae were exposed to egg water. Survival numbers were recorded and EC50s calculated.
(§2) 3 dpf larvae were exposed to LPS by immersion technique. […] Control larvae were exposed to egg water. Survival numbers were recorded and EC50s calculated. The percentage (%) of embryos showing vascular leakage was also recorded and 1050s calculated.

[2] = test system: LPS-induced vascular leakage; assay: Vascular leakage (leaked red blood cells in tailfin) in LPS-treated zebrafish larvae; conditions: comparison of UNC0642 and A366, zebrafish larvae, 27 μg/ml LPS, 24 h
Method: as §1
3 dpf Tg (flk1:GFP; gata-1:Dsred) double transgenic larvae were exposed to Vehicle, LPS (100 μg/ml) or LPS+1 μM UNC0642 by static immersion for 6 h at 28.5° C. to induce endothe-lial dysfunction and the resulting leakage of red blood cells. The larvae were then imaged using a Leica fluorescence microscope (Leica Microsystems, Wetzlar, Germany). Red blood cells that leaked out into the tailfin region were quantified.
as §2

zebrafish larvae = assay: Toxicity in zebrafish larvae; conditions: 3 dpf larvae, observed daily for 72 hours post incubation
Excerpt: Parameters of developmental toxicity (organ size and shape), cardiac toxicity (cardiac edema and heart rate), neuromuscular toxicity (touch response) and finally death were investigated.

COc1cc2c(cc1OCCCN1CCCC1)N=C(N)C21CCC1 [A366, 5-Methoxy-6′-[3-(1-pyrrolidinyl)propoxy]spiro[cyclobutane-1,3′-[3H]indol]-2′-amine]
Rescue of sepsis-associated mortality [1]: able to rescue | Rescue of sepsis-associated vascular leakage [2]: able to rescue | Concentration below which non-toxic to zebrafish embryos (zebrafish larvae): below 2.5 mM
